Measured values: patent US20240382443A1, “GENERATION OF S-NITROSOACETYLCYSTEINE” (The UAB Research Foundation, priority 2023, published 2024)

Tests used:
[1] = test system: mice with L-NAME-induced systemic hypertension; assay: L-NAME-induced systemic hypertension in mice, drinking water; assay type: in vivo; conditions: L-NAME-treated mice, NAC 0.5 g/L or nitrite 20 mg/L alone, 2 months
Method: L-NAME (N-nitro-L-arginine methyl ester) is an inhibitor of eNOS enzyme activity. Administering L-NAME in the drinking water of animals induces systemic hypertension by decreasing NO synthesis in blood vessels. In this study, mice were fed L-NAME alone (0.1 g/L) or L-NAME+NAC (0.5 g/L), L-NAME+nitrite (20 mg/L), or L-NAME+NAC with one of two nitrite doses (i.e., 10 mg/L or 20 mg/L) in drinking water for 2 months. Mean arterial blood pressure was measured by the tail-cuff method (Kent Scientific, Torrington, CT).
Acute doses of nitrite (0.1 to 1 mg/kg B. wt.) or NAC (10 to 50 mg/kg B. wt.) alone or in combination were administered sublingually or by oral gavage to anesthetized Wistar rats and blood collected at varying time points for measurement of total plasma SNOs by chemiluminescence method. BP was measured by femoral intra-arterial catheterization. Chronic studies were carried out in an L-NAME (eNOS inhibitor) induced hypertensive mouse model. Mice were randomized into five groups 1) control, 2) control L-NAME (0.1 g/L), 3) L-NAME+nitrite (20 mg/L), 4) L-NAME+nitrite (10 mg/L)+NAC (0.5 g/L), 5) L-NAME+nitrite (20 mg/L)+NAC 0.5 g/L) in drinking water for 2 months. Plasma S-nitrosothiols blood pressure (tail cuff method), arterial stiffness (Doppler method) were determined.

eNOS^-/- mice = assay: Tail-cuff MAP in eNOS-/- hypertensive mice, drinking water; assay type: in vivo; conditions: nitrite 50 mg/L, NAC 500 mg/L in drinking water for 2 months, versus eNOS-/- control
Method: 15-week-old wild-type (WT) and eNOS^-/- mice were divided into 5 groups. (1) WT control, (2) eNOS^-/- control, (3) eNOS^-/-+nitrite, (4) eNOS^-/-+NAC, and (5) eNOS^-/-+nitrite+NAC. NAC was dissolved in the drinking water, and pH was adjusted to 7.0 to prevent initial nitrite reaction with NAC. The mice were given pharmacological doses of nitrite (50 mg/L) and NAC (500 mg/L) individually or in combination for 2 months.

[2] = test system: rats with severe Sugen-hypoxia-induced pulmonary hypertension; assay: Right ventricular systolic pressure (RVSP) after inhaled aerosol in Sugen-hypoxia pulmonary hypertension rats; assay type: in vivo, Sprague Dawley rats
Method: Stock SNOAC was prepared by reacting an appropriate amount of sodium nitrite and NAC in water just before use. The pH was adjusted to 7.0 with alkaline solution and then transferred to an Aeroneb Nebulizer (Kent Scientific). Severe PH was induced in Sprague Dawley rats by subcutaneous injection of vascular endothelial growth factor receptor antagonist Sugen 5416 followed by exposure to hypoxia (10% O2) for 3 weeks and normoxia for 4 weeks. Right ventricular systolic pressure (RVSP) was measured invasively in a closed-chest, spontaneously breathing rat model as an indicator of pulmonary arterial pressure. Rats were anesthetized with 1.5% isoflurane in air with a flow rate of 2 L/min. A blood pressure catheter was inserted into the right ventricle through the jugular vein, and baseline RVSP was measured. After the pressure stabilized, the aerosolized drug was introduced into the isoflurane line for 5 minutes.

normotensive rats [3] = assay: Femoral mean arterial pressure after sublingual administration in normotensive rats; assay type: in vivo; conditions: 0.2, 0.4 or 0.8 mg nitrite/kg with 10 mg NAC
Method: Normotensive rats were anesthetized with isoflurane. The femoral artery was catheterized with a Micro-Tip Catheter Transducer (AD Instruments, Houston, TX) for monitoring of blood pressure. Once the baseline blood pressure was stabilized, at approximately 30 minutes, rats were treated sublingually with 50 μL of SNOAC generated by reacting 0.2 mg, 0.4 mg, or 0.8 mg nitrite/kg body weight with a fixed concentration of 10 mg NAC (FIG. 5). Control rats were treated with nitrite or NAC alone. The mean arterial pressure (MAP) was continually monitored.

[4] = test system: Spontaneously Hypertensive Rats (SHR); assay: Tail-cuff MAP in SHR and WKY rats, drinking water; assay type: in vivo; conditions: NAC 1.2 g/L, nitrite 60 mg/L in drinking water, end of 3 months, versus SHR control
Method: SHR rats are a well-established model used to study essential hypertension. Normotensive Wistar Kyoto rats (WKY) were used as a control group. Rats were fed with NAC (1.2 g/L), nitrite (60 mg/L), or a combination of the two in drinking water for 3 months. Mean arterial blood pressure was measured by the tail-cuff method once each month.

normotensive rats [5] = assay: Mean arterial pressure after oral gavage in normotensive rats; assay type: in vivo; conditions: 0.5 mL
Method: The mean arterial pressure (MAP) was continually monitored.
The MAP in rats was measured as described for sublingual administration. After baseline blood pressure was measured, 0.5 mL of nitrite alone, NAC alone, or the nitrite−NAC mixture was administered by gavage.

[6] = Plasma and organ RSNOs after oral gavage of nitrite in neutral NAC; assay type: in vivo, rats; conditions: single agent alone, nitrite 1.5 mg/kg, NAC 50 mg/kg
Method: […] BP was measured by femoral intra-arterial catheterization. Chronic studies were carried out in an L-NAME (eNOS inhibitor) induced hypertensive mouse model. Mice were randomized into five groups 1) control, 2) control L-NAME (0.1 g/L), 3) L-NAME+nitrite (20 mg/L), 4) L-NAME+nitrite (10 mg/L)+NAC (0.5 g/L), 5) L-NAME+nitrite (20 mg/L)+NAC 0.5 g/L) in drinking water for 2 months. Plasma S-nitrosothiols blood pressure (tail cuff method), arterial stiffness (Doppler method) were determined.

[7] = Total S-nitrosothiols in blood after sublingual nitrite and NAC in mice; assay type: in vivo; conditions: 0.1 mg nitrite and 10 mg NAC
Method: FIG. 14 is a graphical representation of the transfer of the SNOAC that is generated in the sublingual space to blood circulation in mice. The concentration of total S-nitrosothiols at 1, 30 min., and 60 min. was determined after mice were sublingually administered 0.1 mg nitrite and 10 mg NAC in 50 μL of water, generating SNOAC.
In this study, the sublingual and buccal cavity medication route of SNOAC generation and administration for acute dosing was first examined. A dose of NAC and sodium nitrite with 25 μL of water was placed under the tongue of mice or rats. Specifically, a dose of 0.1 mg of nitrite and 10 mg of NAC was placed under the tongue of the subject, blood was collected varying time points, and total S-nitrosothiols (SNO) were measured by a chemiluminescence method. […] As shown in FIG. 14 for mice and FIG. 4 for rats, SNOAC is generated in the buccal cavity and absorbed into circulation.

[8] = Plasma S-nitrosothiols and nitrite after sublingual SNOAC in rats; assay type: in vivo
Method: Because the chemicals cannot be placed in the buccal cavity of experimental animals, SNOAC was prepared in a test tube just before use and then placed in the sublingual space. Normotensive rats were anesthetized and the femoral artery was cannulated to collect blood. Stock SNOAC at 30 μmoles/mL was prepared by reacting sodium nitrite with NAC at the molar ratio of 1:2 in water just before use. It is believed that all of the nitrite is converted to SNOAC under these conditions. After baseline blood samples were collected in heparinized tubes, approximately 50 μL of SNOAC solution (0.4 mg nitrite and 1.87 mg NAC/kg body weight) was placed under the tongue of anesthetized rats. Blood was collected at 10-minute intervals. The plasma was separated, and nitrite and total S-nitrosothiols in plasma were determined. […] There was no change in plasma nitrite levels.
In this study, the sublingual and buccal cavity medication route of SNOAC generation and administration for acute dosing was first examined. A dose of NAC and sodium nitrite with 25 μL of water was placed under the tongue of mice or rats. Specifically, a dose of 0.1 mg of nitrite and 10 mg of NAC was placed under the tongue of the subject, blood was collected varying time points, and total S-nitrosothiols (SNO) were measured by a chemiluminescence method. […]

[9] = test system: angiotension-2—induced acute PH; assay: Angiotensin-2-induced acute pulmonary hypertension in control rats; assay type: in vivo; conditions: inhalation
[10] = RSNO decomposition in water monitored by spectra; assay type: physicochemical; conditions: over 15 hours; from 15 mM sodium nitrite and 60 mM N-acetylcysteine in water
Method: FIG. 11 is a graphical representation of generation and decomposition of S-nitroso-N-acetylcysteine (RSNO). In the left panel, RSNO generation is show when 15 mM sodium nitrite is reacted with 60 mM N-acetylcysteine (RSH) in water. All nitrite is converted instantly to RSNO. In the right panel, RSNO decomposition is monitored by recording spectra at 1.5 hour intervals over 15 hours. Approximately 50% of the RSNO was decomposed over the 15 hours.
Nitrite is converted to […] by reacting with RSH in water. RSNOs have potent vasodilatory, anti-inflammatory, and antiplatelet activities. As shown by the comparison of generation of RSNO in FIG. 11, left panel, with degradation in FIG. 11, right panel, the instability of RSNO after preparation is a major hindrance to use them as NO donors to restore the NO bio-availability that decrease with aging and pathophysiological conditions of cardiovascular diseases. Therefore, RSNOs have proven easy to prepare, but not typically stable after preparation.

cardiac proteins = assay: SNO-RAC proteomics of rat heart tissue; assay type: in vivo, rats; conditions: single oral gavage dose, hearts collected after 1 hour
Method: FIG. 12 is a graphical representation of proteomics analysis of rat heart tissue. A single dose of nitrite and NAC at neutral pH were administered by oral gavage to rats. Rats were sacrificed after 1 hour and the hearts were collected. Total RSNO sites were identified using the a SNO-RAC (resin assisted capture) protocol. Proteomics was performed using liquid chromatography-tandem mass spectrometry (LC-MS/MS) analysis.

Compound	MAP [1]	MAP (eNOS^-/- mice)	effect on RVSP of inhaled precursor molecules alone ([2]; hypertensive rats)	mean arterial pressure (MAP) (normotensive rats [3])	MAP [4]	MAP (normotensive rats [5])	RVSP course after cessation of inhalation ([2]; hypertensive rats)	also measured
O=NO [nitrite, sodium nitrite]	no significant change	no significant change	no effect	no change	no effect	neither nitrite nor NAC alone altered the blood pressure	–	effect on PH at higher doses ([2]; even at higher doses): No effect
CC(=O)N[C@@H](CS)C(=O)O [NAC, N-acetylcysteine]	no significant change	no significant change	no effect	no change	modestly decreased	neither nitrite nor NAC alone altered the blood pressure	–	increase in plasma RSNOs [6]: no change
nitric oxide [NO gas]	–	–	–	–	–	–	rapidly bounced back to baseline after cessation	RVSP during inhalation of NO gas ([2]; hypertensive rats, 30 ppm inhaled for 5 minutes): rapid decrease in RVSP
CC(=O)N[C@@H](CSN=O)C(=O)O [SNOAC, S-nitroso-N-acetylcysteine]	–	–	–	–	–	–	slowly increased over the following 40 minutes, while still remaining lower than the baseline value	total S-nitrosothiols (SNO) over time [7]: increased with increasing the time; life span (SNOAC life span): about 30 min; RVSP change in control animals ([2]; control animals, baseline RVSP 30 mmHg): did not change significantly; RVSP after another dose of aerosolized drug after 40 minutes ([2]; hypertensive rats): sustained decrease in RVSP that was longer than after the initial dose; time the RVSP decrease was sustained at the same level after cessation of drug ([2]; hypertensive rats): 5 min; RVSP after inhalation of aerosolized drug ([2]; hypertensive rats, baseline RVSP 125 mmHg, inhalation for 5 minutes): 96 mmHg; plasma nitrite levels ([8]; after sublingual SNOAC): no change; total plasma S-nitrosothiols (SNO) over time ([8]; rats, sublingual): increased with increasing the time; angiotensin-2-induced acute PH [9]: significantly decreased; RSNO decomposed [10]: Approximately 50%; S-nitrosylation of cardiac proteins (cardiac proteins): increased with increasing the dose of RSNO
